Measured values reported in PubChem BioAssay (NCI).
Where “and” joins values, the source holds several entries; their conditions need not be identical. Equal values may be shown once.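 All cell lines were grown in 96-well plates and treated with compound for 48 hours. GI50 = concentration required for 50% inhibition of growth. The concentration for full growth arrest is given as TGI.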

Legend:
Assay in all cases: NCI-60 cell line screen, 48 h
[1] = tested on: K-562 leukemia
[2] = tested on: HCT-15 colon
[3] = tested on: SK-MEL-5 melanoma
[4] = tested on: NCI-H460 lung
[5] = tested on: SF-295 CNS
[6] = tested on: MDA-N
[7] = tested on: MDA-MB-231 breast
[8] = tested on: HS 578T breast
[9] = tested on: U251 CNS
[10] = tested on: RPMI-8226 leukemia
[11] = tested on: SK-MEL-2 melanoma
[12] = tested on: SR leukemia
[13] = tested on: 786-0 renal
[14] = tested on: RXF 393 renal
[15] = tested on: SF-268 CNS
[16] = tested on: IGROV1 ovarian
[17] = tested on: CCRF-CEM leukemia
[18] = tested on: MOLT-4 leukemia
[19] = tested on: SN12C renal
[20] = tested on: SK-OV-3 ovarian
[21] = tested on: LOX IMVI melanoma
[22] = tested on: UO-31 renal
[23] = tested on: SF-539 CNS
[24] = tested on: HOP-62 NSCLC
[25] = tested on: COLO 205 colon
[26] = tested on: SNB-19 CNS
[27] = tested on: UACC-62 melanoma
[28] = tested on: NCI-H23 lung
[29] = tested on: CAKI-1 renal
[30] = tested on: ACHN renal
[31] = tested on: HCT-116 colon
[32] = tested on: MCF7 breast
[33] = tested on: OVCAR-5 ovarian
[34] = tested on: MALME-3M melanoma
[35] = tested on: PC-3 prostate
[36] = tested on: HL-60(TB) leukemia
[37] = tested on: NCI/ADR-RES ovarian
[38] = tested on: DU-145 prostate
[39] = tested on: T-47D breast
[40] = tested on: HCC-2998 colon
[41] = tested on: TK-10 renal
[42] = tested on: SW-620 colon
[43] = tested on: A549 NSCLC
[44] = tested on: HT29 colon
[45] = tested on: SNB-75 CNS
[46] = tested on: M14 melanoma
[47] = tested on: EKVX NSCLC
[48] = tested on: OVCAR-8 ovarian
[49] = tested on: KM12 colon
[50] = tested on: UACC-257 melanoma
[51] = tested on: SK-MEL-28 melanoma
[52] = tested on: BT-549 breast
[53] = tested on: MDA-MB-435
[54] = tested on: HOP-92 NSCLC
[55] = tested on: NCI-H226 lung
[56] = tested on: NCI-H522 lung
[57] = tested on: OVCAR-3 ovarian
[58] = tested on: OVCAR-4 ovarian
[59] = tested on: A498 renal

COC(C)(C)[C@@H]1CCCN1C1=C(C)C(=O)OC1
TGI [1]: > 100 µM
TGI [2]: > 100 µM
TGI [3]: > 100 µM
TGI [4]: > 100 µM
TGI [5]: > 100 µM
TGI [6]: > 100 µM
TGI [7]: > 100 µM
TGI [8]: > 100 µM
TGI [9]: > 100 µM
TGI [10]: > 100 µM
TGI [11]: > 100 µM
TGI [12]: > 100 µM
TGI [13]: > 100 µM
TGI [14]: > 100 µM
TGI [15]: > 100 µM
TGI [16]: > 100 µM
TGI [17]: > 100 µM
TGI [18]: > 100 µM
TGI [19]: > 100 µM
TGI [20]: > 100 µM
TGI [21]: > 100 µM
TGI [22]: > 100 µM
TGI [23]: > 100 µM
TGI [24]: > 100 µM
TGI [25]: > 100 µM
TGI [26]: > 100 µM
TGI [27]: > 100 µM
TGI [28]: > 100 µM
TGI [29]: > 100 µM
TGI [30]: > 100 µM
TGI [31]: > 100 µM
TGI [32]: > 100 µM
TGI [33]: > 100 µM
TGI [34]: > 100 µM
TGI [35]: > 100 µM
TGI [36]: > 100 µM
TGI [37]: > 100 µM
TGI [38]: > 100 µM
TGI [39]: > 100 µM
TGI [40]: > 100 µM

CC(C)(Oc1ccc(C(=O)c2ccc(Cl)cc2)cc1Cl)C(=O)N1CCN(CCO)CC1
TGI [1]: > 10 µM
TGI [2]: > 10 µM
TGI [41]: > 10 µM
TGI [3]: > 10 µM
TGI [42]: > 10 µM
TGI [43]: > 10 µM
TGI [5]: > 10 µM
TGI [6]: > 10 µM
TGI [44]: > 10 µM
TGI [45]: > 10 µM
TGI [7]: > 10 µM
TGI [46]: > 10 µM
TGI [10]: > 10 µM
TGI [12]: > 10 µM
TGI [13]: > 10 µM
TGI [14]: > 10 µM
TGI [16]: > 10 µM
TGI [17]: > 10 µM
TGI [18]: > 10 µM
TGI [19]: > 10 µM
TGI [20]: > 10 µM
TGI [21]: > 10 µM
TGI [24]: > 10 µM
TGI [25]: > 10 µM
TGI [47]: > 10 µM
TGI [27]: > 10 µM
TGI [48]: > 10 µM
TGI [28]: > 10 µM
TGI [49]: > 10 µM
TGI [29]: > 10 µM
TGI [50]: > 10 µM
TGI [32]: > 10 µM
TGI [34]: > 10 µM
TGI [35]: > 10 µM
TGI [36]: > 10 µM
TGI [38]: > 10 µM
TGI [39]: > 10 µM
TGI [40]: > 10 µM
TGI [51]: > 10 µM

CC(C)n1nc(C#Cc2cccc(O)c2)c2c(N)ncnc21
GI50 [1]: 0.0636 µM and 0.0283 µM
TGI [1]: 50 µM and > 100 µM
GI50 [2]: 1.35 µM and 0.906 µM
TGI [2]: 21.6 µM and 10.1 µM
GI50 [41]: 2.57 µM and 2.03 µM
TGI [41]: 10.1 µM and 5.05 µM
GI50 [3]: 1.72 µM and 0.887 µM
TGI [3]: 6.39 µM and 2.67 µM
GI50 [42]: 2.08 µM and 1.72 µM
TGI [42]: 50 µM and 31.9 µM
GI50 [4]: 1.34 µM and 1.13 µM
TGI [4]: 9.9 µM and 13.1 µM
GI50 [52]: 1.33 µM and 1.34 µM
TGI [52]: 4.56 µM and 6.18 µM
GI50 [43]: 2.62 µM and 3.17 µM
TGI [43]: 18.3 µM and 14.6 µM
GI50 [5]: 3.16 µM and 1.17 µM
TGI [5]: 12.2 µM and 3.58 µM
GI50 [44]: 2.04 µM and 1.74 µM
TGI [44]: 50 µM and 19.4 µM
GI50 [45]: 0.161 µM and 0.442 µM
TGI [45]: 1.12 µM and 2.09 µM
GI50 [7]: 0.508 µM and 0.0966 µM
TGI [7]: 2.07 µM and 2.15 µM
GI50 [8]: 0.583 µM and 0.17 µM
TGI [8]: 1.88 µM and 0.632 µM
GI50 [9]: 2.83 µM and 2.95 µM
TGI [9]: 50 µM and 12.8 µM
GI50 [46]: 0.693 µM and 0.397 µM
TGI [46]: 4.68 µM and 2.42 µM
GI50 [10]: 1.13 µM and 0.516 µM
TGI [10]: 5.78 µM and 6.19 µM
GI50 [53]: 0.882 µM and 0.655 µM
TGI [53]: 5.5 µM and 5.03 µM
GI50 [54]: 0.489 µM and 0.187 µM
TGI [54]: 2.35 µM and 0.774 µM
GI50 [11]: 0.721 µM and 0.751 µM
TGI [11]: 2.69 µM and 3.11 µM
GI50 [12]: 1.17 µM and 0.573 µM
TGI [12]: 23.4 µM and 11.4 µM
GI50 [13]: 4.7 µM and 3.37 µM
TGI [13]: 15.3 µM and 11.7 µM
GI50 [14]: 1.15 µM and 0.481 µM
TGI [14]: 4.2 µM and 1.5 µM
GI50 [15]: 1.37 µM and 1.09 µM
TGI [15]: 6.71 µM and 6.05 µM
GI50 [55]: 3.81 µM and 1.37 µM
TGI [55]: 21.1 µM and 6.02 µM
GI50 [16]: 0.856 µM
TGI [16]: 2.24 µM
GI50 [17]: 1.65 µM and 1.15 µM
TGI [17]: 50 µM and 13.3 µM
GI50 [18]: 1.2 µM and 0.412 µM
TGI [18]: 9.4 µM and 4.7 µM
GI50 [19]: 0.894 µM and 0.532 µM
TGI [19]: 5.09 µM and 4.76 µM
GI50 [20]: 0.978 µM and 1.01 µM
TGI [20]: 3.67 µM
GI50 [21]: 0.685 µM and 0.316 µM
TGI [21]: 2.64 µM and 1.19 µM
GI50 [22]: 0.391 µM and 0.416 µM
TGI [22]: 1.92 µM and 2.83 µM
GI50 [23]: 0.815 µM and 0.282 µM
TGI [23]: 3.57 µM and 1.65 µM
GI50 [24]: 1.18 µM and 1.3 µM
TGI [24]: 4.31 µM and 5 µM
GI50 [25]: 1.53 µM and 1.89 µM
TGI [25]: 12.7 µM and 13.2 µM
GI50 [26]: 3.02 µM and 2.16 µM
TGI [26]: 21.4 µM and 14.4 µM
GI50 [47]: 9.41 µM and 7.49 µM
TGI [47]: 29 µM and 25.7 µM
GI50 [27]: 0.82 µM and 0.346 µM
TGI [27]: 2.59 µM and 1.58 µM
GI50 [56]: 0.627 µM
TGI [56]: 5.33 µM and 4.55 µM
GI50 [48]: 1.99 µM and 2.41 µM
TGI [48]: 30.1 µM and 16.1 µM
GI50 [28]: 1.23 µM and 0.992 µM
TGI [28]: 6.75 µM and 5.4 µM
GI50 [49]: 1.75 µM and 2.33 µM
TGI [49]: 25.8 µM and 60.8 µM
GI50 [29]: 1.66 µM and 1.59 µM
TGI [29]: 6.06 µM and 6.87 µM
GI50 [30]: 1.05 µM and 0.461 µM
TGI [30]: 4.18 µM and 3.96 µM
GI50 [57]: 1.32 µM and 1.7 µM
TGI [57]: 5.62 µM and 7.63 µM
GI50 [31]: 1.17 µM and 0.586 µM
TGI [31]: 7.78 µM and 10.8 µM
GI50 [50]: 1.22 µM and 1.63 µM
TGI [50]: 6.17 µM and 4.95 µM
GI50 [32]: 1.62 µM and 1.51 µM
TGI [32]: 50 µM and 11.9 µM
GI50 [33]: 1.79 µM and 1.62 µM
TGI [33]: 16.4 µM and 8 µM
GI50 [34]: 0.248 µM and 0.234 µM
TGI [34]: 1.38 µM and 0.917 µM
GI50 [58]: 1.34 µM and 1.74 µM
TGI [58]: 7.4 µM and 6.17 µM
GI50 [35]: 1.37 µM and 1.18 µM
TGI [35]: 12.3 µM and 13.9 µM
GI50 [36]: 0.832 µM and 0.217 µM
TGI [36]: 10.8 µM and 20.2 µM
GI50 [37]: 2.38 µM and 1.87 µM
TGI [37]: 24.7 µM and 7.09 µM
GI50 [38]: 1.67 µM and 1.51 µM
TGI [38]: 14.5 µM and 11.1 µM
GI50 [59]: 1.56 µM and 1.71 µM
TGI [59]: 6.5 µM and 4.29 µM
GI50 [39]: 1.01 µM and 0.864 µM
TGI [39]: 3.38 µM and 4.09 µM
GI50 [40]: 2.4 µM and 4.46 µM
TGI [40]: 27.4 µM and 21.5 µM
GI50 [51]: 0.657 µM and 0.304 µM
TGI [51]: 2.73 µM and 2.36 µM
